For 30 molecules, Ki results are on record in ChEMBL document CHEMBL1149662, “Design and synthesis of a library of tertiary amides: evaluation as mimetics of the melanocortins' active core” (Bioorg Med Chem, 2007).

Each structure is given as a SMILES string.

For assay [1], the target named is Melanocyte-stimulating hormone receptor (Mus musculus, UniProt Q01727). The assay can be described thus: Displacement of [125I]NDP-MSH from MC1 receptor in mouse B16 cells. Type of assay: cell-based.
The next assay addresses Melanocortin receptor 3 (Homo sapiens, UniProt P41968). Briefly: Displacement of [125I]NDP-MSH from human recombinant MC3 receptor expressed in Sf9 cells.
The next assay has as its target Melanocortin receptor 4 (Homo sapiens, UniProt P32245). The assay can be described thus: Displacement of [125I]NDP-MSH from human recombinant MC4 receptor expressed in Sf9 cells.
The next assay concerns the target Melanocortin receptor 5 (Homo sapiens, UniProt P33032). Briefly: Displacement of [125I]NDP-MSH from human recombinant MC5 receptor expressed in Sf9 cells.

Melanocortin receptor 3, sequence (P41968 whole entry): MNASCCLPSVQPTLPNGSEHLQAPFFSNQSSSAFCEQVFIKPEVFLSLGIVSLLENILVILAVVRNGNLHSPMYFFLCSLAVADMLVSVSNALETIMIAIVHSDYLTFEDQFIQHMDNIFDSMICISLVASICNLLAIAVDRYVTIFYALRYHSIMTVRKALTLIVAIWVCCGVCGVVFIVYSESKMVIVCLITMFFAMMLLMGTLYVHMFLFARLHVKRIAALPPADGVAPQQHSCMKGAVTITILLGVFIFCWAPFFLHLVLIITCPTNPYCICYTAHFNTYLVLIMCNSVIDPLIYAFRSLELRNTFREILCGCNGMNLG
Melanocortin receptor 5, sequence (P33032 whole entry): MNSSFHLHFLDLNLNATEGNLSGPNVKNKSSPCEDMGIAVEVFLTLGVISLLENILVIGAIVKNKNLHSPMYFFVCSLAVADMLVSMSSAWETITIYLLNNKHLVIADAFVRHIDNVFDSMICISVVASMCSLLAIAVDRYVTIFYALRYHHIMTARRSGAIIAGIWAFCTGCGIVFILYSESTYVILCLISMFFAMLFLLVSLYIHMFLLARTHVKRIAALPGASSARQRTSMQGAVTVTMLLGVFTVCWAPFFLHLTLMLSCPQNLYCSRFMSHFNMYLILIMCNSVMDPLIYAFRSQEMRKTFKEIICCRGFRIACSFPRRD
Melanocortin receptor 4, sequence (P32245 whole entry): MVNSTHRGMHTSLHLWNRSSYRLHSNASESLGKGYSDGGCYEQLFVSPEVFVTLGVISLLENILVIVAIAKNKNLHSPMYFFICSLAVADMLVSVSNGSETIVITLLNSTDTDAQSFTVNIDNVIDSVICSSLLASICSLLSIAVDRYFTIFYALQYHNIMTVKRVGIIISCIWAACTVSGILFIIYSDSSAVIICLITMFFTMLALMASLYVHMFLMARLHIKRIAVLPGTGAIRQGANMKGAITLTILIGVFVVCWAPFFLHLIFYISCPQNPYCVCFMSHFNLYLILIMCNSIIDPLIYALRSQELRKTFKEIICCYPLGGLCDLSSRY
Melanocyte-stimulating hormone receptor, sequence (Q01727 whole entry): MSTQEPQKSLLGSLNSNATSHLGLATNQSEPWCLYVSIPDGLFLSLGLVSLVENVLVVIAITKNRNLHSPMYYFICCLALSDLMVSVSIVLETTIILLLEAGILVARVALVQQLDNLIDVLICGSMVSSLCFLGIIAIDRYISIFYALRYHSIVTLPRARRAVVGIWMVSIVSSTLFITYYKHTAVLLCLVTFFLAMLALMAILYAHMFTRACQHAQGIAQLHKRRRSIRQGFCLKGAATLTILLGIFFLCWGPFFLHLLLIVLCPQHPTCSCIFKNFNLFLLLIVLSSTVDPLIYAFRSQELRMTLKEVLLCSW

For `NCc1cccc(CN(Cc2ccc3ccccc3c2)C(=O)CCCc2c[nH]c3ccccc23)c1`, the Ki is 1.5 µM in assay [1], 17 µM at Melanocortin receptor 3, 7.7 µM at Melanocortin receptor 4 and 6.4 µM at Melanocortin receptor 5.
With `NC1CCC(CC2CCC(N(Cc3ccccc3Cl)C(=O)CCCc3c(Cc4ccc(O)cc4)[nH]c4ccccc34)CC2)CC1` (stereo not given), the Ki in assay [1] stood at 6.6 µM; at Melanocortin receptor 3, 26 µM; at Melanocortin receptor 4, 14 µM; at Melanocortin receptor 5 it was 97 µM.
Taken in the same sequence, the figures for `NCCCCCN(Cc1ccccc1)C(=O)[C@H](N)Cc1ccc(-c2ccccc2)cc1` were 3.9 µM, 18 µM, 14 µM and 20 µM.
Taken in the same sequence, the figures for `NCCCCCCCN(Cc1ccccc1)C(=O)CCCc1c[nH]c2ccccc12` were 4 µM, 28 µM, 3.8 µM and 3.2 µM.
`NCCCN(C/C(Cl)=C/c1ccccc1)C(=O)CCCc1c[nH]c2ccccc12`: the Ki turned out to be 6.1 µM in assay [1], 18 µM at Melanocortin receptor 3, 7 µM on Melanocortin receptor 4 and 31 µM at Melanocortin receptor 5.
For the molecule `NCCCCN(C/C=C/c1ccccc1)C(=O)CCc1c[nH]c2ccccc12`, the Ki in assay [1] was determined as 8.3 µM; on Melanocortin receptor 3, 67 µM; at Melanocortin receptor 4 it was 18 µM; at Melanocortin receptor 5, 10 µM.
The matching figures for `CCOc1cc(CN(C(=O)CCCc2c[nH]c3ccccc23)C2CCC(CC3CCC(N)CC3)CC2)ccc1OC` (stereo not given): 2.9 µM, 16 µM, 2.1 µM and 9.5 µM.
On to `NC1CCC(CC2CCC(N(CCc3c(F)cccc3Cl)C(=O)CCCc3c[nH]c4ccccc34)CC2)CC1` (stereo not given), for which the inhibition constant (Ki) in assay [1] was found to be 2.1 µM; at Melanocortin receptor 3 it was 24 µM; on Melanocortin receptor 4 it was 2.3 µM; on Melanocortin receptor 5, 5.2 µM.
The matching figures for `NCCCCCN(Cc1ccc2ccccc2c1)C(=O)Cc1c[nH]c2ccccc12`: 1.5 µM, 50 µM, 13 µM and 5.2 µM.
The matching figures for `N#Cc1ccc(CN(C(=O)CCCc2c[nH]c3ccccc23)C2CCC(CC3CCC(N)CC3)CC2)cc1` (stereo in doubt; form 1): 1.6 µM, 12 µM, 2 µM and 6.5 µM.
The matching figures for `NCCCCN(Cc1ccccc1)C(=O)CCCc1c(Cc2ccc(O)cc2)[nH]c2ccccc12`: 7.7 µM, 16 µM, 6.2 µM and 4.6 µM.
Consider `CC1CC(CC2CCC(N(Cc3ccccc3)C(=O)CCCc3c[nH]c4ccccc34)C(C)C2)CCC1N` (stereo in doubt; form 5), for which the inhibition constant (Ki) in assay [1] came out at 1.3 µM; at Melanocortin receptor 3, 31 µM; on Melanocortin receptor 4, 2.1 µM; at Melanocortin receptor 5, 5 µM.
On to `NCCCCCN(C/C=C\c1ccccc1)C(=O)CCCc1c[nH]c2ccccc12`, for which the Ki in assay [1] is 3 µM; on Melanocortin receptor 3 it was 36 µM; at Melanocortin receptor 4 it was 16 µM; at Melanocortin receptor 5, 2.2 µM.
As to `Cc1ccc(CN(C(=O)CCCc2c[nH]c3ccccc23)C2CCC(CC3CCC(N)CC3)CC2)cc1` (stereo not given), the Ki in assay [1] is 1.3 µM; on Melanocortin receptor 3, 220 µM; on Melanocortin receptor 4, 2.1 µM; at Melanocortin receptor 5, 10 µM.
Taken in the same sequence, the figures for `C=C(Br)CN(C(=O)CCCc1c[nH]c2ccccc12)C1CCC(CC2CCC(N)CC2)CC1` (stereo in doubt; form 4) were 0.81 µM, 27 µM, 3.8 µM and 5.5 µM.
With `NC1CCC(CC2CCC(N(C/C(Cl)=C/c3ccccc3)C(=O)CCCc3c[nH]c4ccccc34)CC2)CC1` (stereo in doubt; form 5), the Ki in assay [1] worked out at 0.61 µM; at Melanocortin receptor 3, 21 µM; on Melanocortin receptor 4, 6 µM; on Melanocortin receptor 5, 3.2 µM.
For the molecule `COc1ccc(CN(C(=O)CCCc2c[nH]c3ccccc23)C2CCC(CC3CCC(N)CC3)CC2)cc1OC` (stereo not given), the Ki was determined as 3.2 µM in assay [1], 22 µM on Melanocortin receptor 3, 3.7 µM at Melanocortin receptor 4 and 8.3 µM on Melanocortin receptor 5.
For the molecule `NCCCN(C(=O)c1c[nH]c2ccccc12)C1CCc2ccccc2C1` (stereo not given), the inhibition constant (Ki) in assay [1] amounted to 4.8 µM; at Melanocortin receptor 3 it was 131 µM; at Melanocortin receptor 4, 74 µM; at Melanocortin receptor 5, 23 µM.
Taken in the same sequence, the figures for `CCN(CC)c1ccc(CN(CCCCCN)C(=O)CCCc2c[nH]c3ccccc23)cc1` were 6.8 µM, 33 µM, 25 µM and 34 µM.
The matching figures for `NC1CCC(CC2CCC(N(Cc3ccccc3)C(=O)CCCc3c[nH]c4ccccc34)CC2)CC1` (stereo in doubt): 1.4 µM, 15 µM, 2.6 µM and 105 µM.
The matching figures for `NCCCN1CCN(CCCN(Cc2ccccc2)C(=O)CCCc2c[nH]c3ccccc23)CC1`: 6.4 µM, 52 µM, 16 µM and 22 µM.
Regarding `NC1CCCC(N(C/C(Cl)=C/c2ccccc2)C(=O)CCCc2c[nH]c3ccccc23)C1` (stereo not given), the Ki turned out to be 2.8 µM in assay [1], 29 µM on Melanocortin receptor 3, 2.1 µM on Melanocortin receptor 4 and 10 µM at Melanocortin receptor 5.
Taken in the same sequence, the figures for `NC1CCC(CC2CCC(N(Cc3ccccc3)C(=O)CCCc3c[nH]c4ccccc34)CC2)CC1` (stereo in doubt; 10d-40-8) were 0.42 µM, 9.4 µM, 8.3 µM and 18 µM.
Taken in the same sequence, the figures for `CC(c1csc2ccccc12)N(CCCN)C(=O)CCCc1c[nH]c2ccccc12` (stereo not given) were 7.4 µM, 104 µM, 9.8 µM and 55 µM.
Taken in the same sequence, the figures for `Cc1cccc(CN(C(=O)CCCc2c[nH]c3ccccc23)C2CCC(CC3CCC(N)CC3)CC2)c1` (stereo not given) were 1.3 µM, 22 µM, 3 µM and 12 µM.
Turning to `NCCN(C(=O)COc1ccc2ccccc2c1)C1CCC2(CCCCC2)CC1`, the inhibitory constant (Ki) in assay [1] is 6 µM; at Melanocortin receptor 3, 2.1 µM; on Melanocortin receptor 4, 4.9 µM; at Melanocortin receptor 5, 3.4 µM.
`NCCN(C/C=C/c1ccccc1)C(=O)CCc1c[nH]c2ccccc12`: the Ki in assay [1] was 17 µM; on Melanocortin receptor 3, 51 µM; on Melanocortin receptor 4, 106 µM; on Melanocortin receptor 5, 13 µM.
Taken in the same sequence, the figures for `Cc1ccccc1CN(C(=O)CCCc1c(Cc2ccc(O)cc2)[nH]c2ccccc12)C1CCC(CC2CCC(N)CC2)CC1` (stereo not given) were 4.7 µM, 349 µM, 4.1 µM and 4.4 µM.
Taken in the same sequence, the figures for `N[C@@H]1CCCC[C@H]1N(C/C=C/c1ccccc1)C(=O)CCCc1c[nH]c2ccccc12` were 12 µM, 62 µM, 116 µM and 555 µM.
`Cc1cccc(CN(C(=O)CCCc2c(Cc3ccc(O)cc3)[nH]c3ccccc23)C2CCC(CC3CCC(N)CC3)CC2)c1` (stereo not given): the Ki in assay [1] came to 2.9 µM; on Melanocortin receptor 3 it was 78 µM; at Melanocortin receptor 4, 3.4 µM; at Melanocortin receptor 5, 16 µM.
